Measurements published in publication PMC4424558, “Antimicrobial and antioxidant flavonoids from the leaves of Oncoba spinosa Forssk. (Salicaceae)” (BMC Complementary and Alternative Medicine, 2015).
≈ marks a conversion by molar mass, not a printed value. Where two headings read alike, the source gives them in different places.

Key:
[1] = test system: Enterobacter aerogenes ATCC13048; assay: Broth microdilution MIC/MBC against Enterobacter aerogenes ATCC13048; type: cell-based; conditions: for MBC / MIC: Klebsiella aerogenes; for MIC: 37°C, 24 h
Experimental: (§1) The studied microorganisms were both reference (from the American Type Culture Collection) and clinical (from Pasteur Institute Paris, France) strains of Enterobacter aerogenes, Escherichia coli, Klebsiella pneumoniae, Candida albicans, and Cryptococcus neoformans. Also, included were two clinical isolates of Candida parapsilosis and Staphylococcus aureus collected from Pasteur Centre (Yaoundé-Cameroon). The bacterial and fungal species were grown at 37°C and maintained on nutrient agar (NA, Conda, Madrid, Spain) and Sabouraud Dextrose Agar (SDA, Conda) slants respectively.
(§2) The inocula of yeasts and bacteria were prepared from overnight cultures by picking numerous colonies and suspending them in sterile saline (NaCl) solution (0.90%). Absorbance was read at 530 nm for yeasts or at 600 nm for bacteria and adjusted with the saline solution to match that of a 0.50 McFarland standard solution. From the prepared microbial solutions, other dilutions with saline solution were prepared to give a final concentration of 10^6 yeast cells/ml and 10^6 CFU/ml for bacteria.
(§3) The antimicrobial activity was investigated by determining the minimum inhibitory concentrations (MICs), minimum bactericidal concentrations (MBCs) and minimum fungicidal concentrations (MFCs).
(§4) MICs were determined by broth micro dilution. Stock solutions of the tested samples were prepared in 10% v/v aqueous dimethylsulfoxide (DMSO) solution (Fisher chemicals, Strasbourg, France) at concentration of 4096 μg/ml. This was two-fold serially diluted in Mueller-Hinton Broth (MHB) for bacteria and Sabouraud Dextrose Broth (SDB) for fungi to obtain a concentration range of 2048 to 0.25 μg/ml. For every experiment, a sterility check (10% aqueous DMSO and medium), negative control (10% aqueous DMSO, medium and inoculum) and positive control (10% aqueous DMSO, medium, inoculum and water-soluble antibiotics) were included. One hundred microliters of each concentration was introduced into a well (96-wells microplate) containing 90 μl of SDB or MHB and 10 μl of inoculum was added to obtain a final concentration range of 4096 to 0.125 μg/ml. The plates were covered with a sterile lid, and incubated on the shaker at 37°C for 24 h (bacteria) and 48 h (yeasts). MICs were assessed visually after the corresponding incubation period and were taken as the lowest sample concentration at which there was no growth or virtually no growth. The assay was repeated thrice.
(§5) The lowest concentration that yielded no growth after the sub-culturing was taken as the MBCs or MFCs. Chloramphenicol (Sigma-Aldrich, Steinheim, Germany) for bacteria and nystatin (Sigma-Aldrich, Steinheim, Germany) for yeasts were used as positive controls.

[2] = test system: Escherichia coli ATCC8739; assay: Broth microdilution MIC/MBC against Escherichia coli ATCC8739; type: cell-based; conditions: for MIC: 37°C, 24 h
Experimental: as §1, §2, §3, §4, §5

[3] = test system: Klebsiella pneumoniae ATCC11296; assay: Broth microdilution MIC/MBC against Klebsiella pneumoniae ATCC11296; type: cell-based; conditions: for MIC: 37°C, 24 h
Experimental: as §1, §2, §3, §4, §5

Staphylococcus aureus = assay: Broth microdilution MIC/MBC against Staphylococcus aureus; type: cell-based; conditions: Staphylococcus aureus clinical isolate; for MIC: 37°C, 24 h
Experimental: as §1, §2, §3, §4, §5

Candida parapsilosis = assay: Broth microdilution MIC/MFC against Candida parapsilosis; type: cell-based; conditions: Candida parapsilosis clinical isolate; for MIC: 37°C, 48 h
Experimental: as §1, §2, §3, §4, §5

[4] = test system: Candida albicans ATCC 9002; assay: Broth microdilution MIC/MFC against Candida albicans ATCC 9002; type: cell-based; conditions: for MIC: 48 h
Experimental: as §1, §2, §3, §4, §5

[5] = test system: Cryptococcus neoformans IP 90526; assay: Broth microdilution MIC/MFC against Cryptococcus neoformans IP 90526; type: cell-based; conditions: for MIC: 48 h
Experimental: as §1, §2, §3, §4, §5

bacteria = assay: Broth microdilution, bacterial strains (panel summary); type: cell-based; conditions: range over the bacterial strains
Experimental: as §1
as §2, with “bacteria. […]” for “bacteria.”
MICs were determined by broth micro dilution. […] MICs were assessed visually after the corresponding incubation period and were taken as the lowest sample concentration at which there was no growth or virtually no growth. […]

fungi = assay: Broth microdilution, fungal strains (panel summary); type: cell-based
Experimental: as §1, §2, §3
as §4, with “One hundred microliters of each concentration was introduced into a well (96-wells microplate) containing 90 μl of SDB or MHB and 10 μl of inoculum was added to obtain a final concentration range of 4096 to 0.125 μg/ml. The plates were covered with a sterile lid, and incubated on the shaker at 37°C for 24 h (bacteria) and 48 h (yeasts).” left out, “The assay was repeated thrice.” left out

[6] = test system: bacterial and fungal species; assay: Broth microdilution, all studied microorganisms (panel summary); type: cell-based; conditions: out of 7 studied microorganisms
Experimental: as §1, §2, §3, §4, §5

[7] = DPPH free radical scavenging assay; type: biochemical; conditions: 30 min, room temperature, 517 nm
Experimental: The free radical scavenging activity of the MeOH extract as well as some of its isolated compounds was evaluated according to described methods with slight modifications. Briefly, the test samples, prior dissolved in DMSO (SIGMA) beforehand, were mixed with a 20 mg/l 2,2-diphenyl-1-picryl-hydrazyl (DPPH) methanol solution, to give final concentrations of 10, 50, 100, 500 and 1000 μg/ml. After 30 min at room temperature, the absorbance values were measured at 517 nm and converted into percentage of antioxidant activity. L-ascorbic acid was used as a standard control. The percentage of decolouration of DPPH (%) was calculated as follows: %decolourationofDPPH=Absorbanceofcontrol−Absorbanceoftestsample)×100/Absorbanceofcontrol
The percentage of decolouration of DPPH (%) was plotted against the test sample. Also, the percentage of decolouration of DPPH was converted in probits. The probit values were plotted against the logarithmic values of concentrations of the test samples and a linear regression curve was established in order to calculate the EC50 (μg/ml), which is the amount of sample necessary to decrease by 50% the absorbance of DPPH [11]. All the analyses were carried out in triplicate.

[8] = Trolox equivalent antioxidant capacity (TEAC) assay; type: biochemical; conditions: ABTS/laccase, 420 nm, 230 s; 20 μg/ml isolated compounds, 10-400 μg/ml MeOH extract; gallic acid equivalents
Experimental: The TEAC test was done as previously described with slight modifications. In a quartz cuvette, to 950 μl acetate buffer (pH = 5.0, 100 mM), the following were added: 20 μl laccase (1 mM stock solution), 20 μl test sample, 10 μl ABTS (2,2′-azinobis(3-ethylbenzothiazoline-6-sulfonic acid)) (74 mM stock solution). The laccase were purified from Sclerotinia sclerotiorum according to the protocol described. The sample concentrations in the assay mixture were 400, 200, 100, 10 μg/ml for the MeOH extract and 20 μg/ml for the isolated compounds. The content of the generated ABTS^●+ radical was measured at 420 nm after 230 s reaction time and was converted to gallic acid equivalents by the use of a calibration curve (Pearson’s correlation coefficient: r = 0.998) constructed with 0, 4, 10, 14, 28, 56, 84 μM gallic acid standards rather than Trolox. Experiments were done in triplicate.

MBC/MIC [1] | MIC [1] | MBC/MIC [2] | MIC [2] | MBC/MIC [3] | MIC [3] | MBC/MIC (Staphylococcus aureus) | MIC (Staphylococcus aureus) | MIC (range over bacteria) (bacteria) | EC50, concentration scavenging 50% of DPPH radical [7] | SMILES | MBC [1] | MBC [2] | MBC [3] | MBC (Staphylococcus aureus) | other results
1 | 32 mg/L (≈ 52.4 µM) | 1 | 64 mg/L (≈ 105 µM) | 2 | 8 mg/L (≈ 13.1 µM) | 2 | 64 mg/L (≈ 105 µM) | 8 to 64 mg/L | 9.63 mg/L | C[C@@H]1O[C@@H](OC[C@H]2O[C@@H](Oc3c(-c4ccc(O)c(O)c4)oc4cc(O)cc(O)c4c3=O)[C@H](O)[C@@H](O)[C@@H]2O)[C@H](O)[C@H](O)[C@H]1O [Compound 5, quercetin 3-O-α-L-rhamnopyranosyl (1 → 6) β-D-glucopyranoside] | 32 mg/L (≈ 52.4 µM) | 64 mg/L (≈ 105 µM) | 16 mg/L (≈ 26.2 µM) | 128 mg/L (≈ 210 µM) | MIC (Candida parapsilosis; Lodderomyces parapsilosis, read-out: MIC): > 256 mg/L; MIC ([4]; ATCC9002, 37°C, read-out: MIC): > 256 mg/L; MIC ([5]; IP90526, 37°C, read-out: MIC): > 256 mg/L; activity against fungal/yeast strains (in words) (fungi; fungal strains): inactive; studied microorganisms on which inhibitory effects were noted [6]: 4/7; Gallic acid equivalent antioxidant capacity (TEAC) [8]: 78.35 µg/mL
1 | 64 mg/L (≈ 198 µM) | 1 | 64 mg/L (≈ 198 µM) | 1 | 16 mg/L (≈ 49.5 µM) | 1 | 64 mg/L (≈ 198 µM) | 16 to 64 mg/L |  | O=C(N[C@H](CO)[C@H](O)c1ccc([N+](=O)[O-])cc1)C(Cl)Cl [chloramphenicol, Chloramphenicol, reference compound] | 64 mg/L (≈ 198 µM) | 64 mg/L (≈ 198 µM) | 16 mg/L (≈ 49.5 µM) | 64 mg/L (≈ 198 µM) | 
 |  |  |  |  |  |  |  |  |  | C[C@@H]1[C@H](O)[C@@H](C)/C=C/C=C/CC/C=C/C=C/C=C/C=C/C(O[C@H]2O[C@H](C)[C@@H](O)[C@H](N)[C@@H]2O)CC2O[C@](O)(CC(O)C(O)CCC(O)CC(O)CC(O)CC(=O)O[C@H]1C)CC(O)C2C(=O)O (some centres unmarked) [nystatin, reference compound] |  |  |  |  | MFC (Candida parapsilosis): 256 mg/L (≈ 276 µM); MFC/MIC (Candida parapsilosis): 1; MIC (Candida parapsilosis): 256 mg/L (≈ 276 µM); MFC [4]: 128 mg/L (≈ 138 µM); MFC/MIC [4]: 1; MIC ([4]; 37°C): 128 mg/L (≈ 138 µM); MFC [5]: 256 mg/L (≈ 276 µM); MFC/MIC [5]: 2; MIC ([5]; 37°C): 128 mg/L (≈ 138 µM); MIC (range over fungi) (fungi; range over the fungal strains): 128 to 256 mg/L
 |  |  |  |  |  |  |  |  | 4.72 mg/L | O=C1O[C@H]([C@@H](O)CO)C(O)=C1O [vitamin C, L-ascorbic acid, reference compound] |  |  |  |  | 
